Measured values published in paper PMC7007424 (Neurotherapeutics, 2019).
“Also recorded” adds a separate entry of the source. Like-named read-outs stand apart in the source and are kept apart here. Marks after values point to notes of the source that are not given here.

Key:
hepatoma HepG2 cells [1] = conditions: 24 h incubation, only at the highest used dose of 100 μM; ref [12]; cited from earlier work
[2] = test system: PTZ-induced clonic seizures in mice; test: s.c. PTZ-induced clonic seizure test, with isobolographic analysis; format: in vivo; conditions: Mus musculus, drug alone i.p. 30 min before s.c. PTZ 100 mg/kg, ± SEM, read-out: ED50 against PTZ-induced clonic seizures
Protocol: Following PTZ administration, mice were placed separately in transparent Plexiglas cages (25 cm × 15 cm × 10 cm) and observed for 30 min for the occurrence of clonic seizures. Clonic seizure activity was defined as the clonus of the whole body lasting for over 3 s, with an accompanying loss of righting reflex.
To determine the ED50 mix value, both drugs in the mixture (at proportionally raised doses) were administered to the mice and a dose–response relationship for the mixture was denoted using Litchfield and Wilcoxon [25]’s log-probit method. • Statistical comparison of the experimentally derived ED50 mix values with their corresponding theoretically additive ED50 add values was undertaken using the unpaired Student’s t test, according to Tallarida [30]. • Graphical illustration of the examined interactions as isobolograms (i.e., simple forms of interaction visualizations).

PTZ-kindled mice [3] = test: locomotor activity test in PTZ-kindled mice; format: in vivo; conditions: repeated i.p. injection, AS-1 15–60 mg/kg, VPA 150 mg/kg, day 34
Protocol: Twenty-four hours after the last PTZ injection (on day 34), mice were subjected to the locomotor activity test, the elevated plus maze test, and the forced swim test. Forty-eight hours after the last PTZ injection (on day 35) the i.v. PTZ seizure threshold test was performed. Spontaneous locomotor activity of mice was monitored using the […] system supported by SedaCom32 software (Panlab/Harvard Apparatus, Barcelona, Spain) according to the method described in detail elsewhere.

hepatoma HepG2 cells [4] = test: hepatotoxicity, HepG2 cell viability; format: cell-based
[5] = test system: L-type Ca^2+ (diltiazem site, antagonist radioligand); test: L-type Ca2+ channel (diltiazem site) binding; conditions: 100 μM; rat cerebral cortex
[6] = test system: fast voltage-gated sodium channels; test: patch clamp of sodium currents in prefrontal cortex pyramidal neurons; format: cell-based, rats; conditions: 100 μM, holding potential − 65 mV, n = 6, p > 0.05
zebrafish larvae = test: EEG discharge assessment in zebrafish larvae exposed to PTZ; conditions: 5 mM, 20 h incubation, then 20 mM PTZ for 5 min; vs vehicle-incubated control
hERG potassium channel = hERG potassium channel (Homo sapiens, UniProt Q12809); test: in vitro
hERG potassium channel, sequence (Q12809 whole entry): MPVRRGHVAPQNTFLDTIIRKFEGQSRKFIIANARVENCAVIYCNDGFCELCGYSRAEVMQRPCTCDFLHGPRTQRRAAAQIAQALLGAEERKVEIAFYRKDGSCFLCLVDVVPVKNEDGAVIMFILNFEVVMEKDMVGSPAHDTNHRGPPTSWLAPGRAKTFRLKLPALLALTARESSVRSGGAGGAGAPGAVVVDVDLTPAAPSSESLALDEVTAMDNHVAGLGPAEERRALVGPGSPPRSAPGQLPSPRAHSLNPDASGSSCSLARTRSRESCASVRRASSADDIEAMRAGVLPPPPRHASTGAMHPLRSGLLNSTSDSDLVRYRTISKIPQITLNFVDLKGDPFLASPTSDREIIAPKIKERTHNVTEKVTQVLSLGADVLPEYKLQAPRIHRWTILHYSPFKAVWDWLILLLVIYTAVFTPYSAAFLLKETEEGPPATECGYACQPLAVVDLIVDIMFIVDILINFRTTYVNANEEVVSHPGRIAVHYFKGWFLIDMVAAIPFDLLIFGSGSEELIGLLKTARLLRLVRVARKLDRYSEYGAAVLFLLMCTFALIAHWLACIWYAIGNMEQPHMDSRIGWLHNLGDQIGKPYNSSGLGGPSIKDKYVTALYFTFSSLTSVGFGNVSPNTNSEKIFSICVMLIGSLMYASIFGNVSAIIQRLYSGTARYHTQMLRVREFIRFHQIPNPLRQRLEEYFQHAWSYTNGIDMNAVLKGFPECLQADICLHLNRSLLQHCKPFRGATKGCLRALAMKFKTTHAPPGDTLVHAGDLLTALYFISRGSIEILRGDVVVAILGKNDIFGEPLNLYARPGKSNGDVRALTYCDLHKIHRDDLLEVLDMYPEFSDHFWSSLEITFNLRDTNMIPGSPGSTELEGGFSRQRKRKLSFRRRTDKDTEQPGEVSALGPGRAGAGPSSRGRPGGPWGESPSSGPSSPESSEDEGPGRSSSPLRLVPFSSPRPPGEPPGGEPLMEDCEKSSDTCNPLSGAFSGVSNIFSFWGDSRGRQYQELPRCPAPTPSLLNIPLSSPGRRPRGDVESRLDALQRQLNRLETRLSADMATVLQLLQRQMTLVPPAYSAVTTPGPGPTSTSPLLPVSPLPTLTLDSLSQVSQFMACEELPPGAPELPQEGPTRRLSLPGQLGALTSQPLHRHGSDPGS

kindled mice = test: i.v. PTZ seizure threshold test in kindled mice; format: in vivo
[7] = test system: GABA transporter (antagonist radioligand); test: GABA transporter binding; conditions: 100 μM; rat cerebral cortex
[8] = metabolic stability on human liver microsomes (HLMs); format: in vitro ADME; conditions: 120 min incubation with HLMs
PTZ-kindled mice [9] = test: elevated plus maze test in PTZ-kindled mice; format: in vivo; conditions: repeated i.p. injection, AS-1 15–60 mg/kg, VPA 150 mg/kg
Protocol: Twenty-four hours after the last PTZ injection (on day 34), mice were subjected to the locomotor activity test, the elevated plus maze test, and the forced swim test. Forty-eight hours after the last PTZ injection (on day 35) the i.v. PTZ seizure threshold test was performed. The elevated plus maze test was used to assess the anxiety-like behavior in kindled animal, as described in detail in our previous study.

CB1 (h) = molecular target: T1, CB1 (h) (Homo sapiens, UniProt P21554); test: CB1 functional assay (agonist and antagonist effect); format: cell-based; conditions: human recombinant (CHO cells), read-out: % inhibition of control agonist/antagonist response (antagonist effect)
T1 construct: Cerep Laboratories (contract testing)
T1 sequence (P21554 whole entry): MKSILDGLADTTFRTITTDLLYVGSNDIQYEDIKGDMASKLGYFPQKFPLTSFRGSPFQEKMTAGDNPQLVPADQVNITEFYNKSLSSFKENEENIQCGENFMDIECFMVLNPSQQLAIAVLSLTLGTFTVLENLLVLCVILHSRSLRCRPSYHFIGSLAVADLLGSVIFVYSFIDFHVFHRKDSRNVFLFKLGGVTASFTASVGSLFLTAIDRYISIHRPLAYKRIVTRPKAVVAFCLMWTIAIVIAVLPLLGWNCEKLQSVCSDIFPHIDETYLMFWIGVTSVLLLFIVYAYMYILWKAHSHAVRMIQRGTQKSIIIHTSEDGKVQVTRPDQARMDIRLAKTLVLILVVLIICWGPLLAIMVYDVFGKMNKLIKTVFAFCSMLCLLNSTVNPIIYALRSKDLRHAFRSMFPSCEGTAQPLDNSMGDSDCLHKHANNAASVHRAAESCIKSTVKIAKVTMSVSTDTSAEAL

naïve mice = test: i.v. PTZ seizure threshold test in naïve mice; format: in vivo; conditions: acute
Protocol: All suspensions and solutions were prepared freshly and administered in a constant volume of 0.1 ml per 10 g of body weight. […] The timed i.v. PTZ test was used to evaluate the changes in seizure threshold in both naïve and kindled mice. The experimental procedure has been described in detail in our earlier studies.

CYP3A4 = CYP3A4 (Homo sapiens, UniProt P08684)
CYP3A4, sequence (P08684 whole entry): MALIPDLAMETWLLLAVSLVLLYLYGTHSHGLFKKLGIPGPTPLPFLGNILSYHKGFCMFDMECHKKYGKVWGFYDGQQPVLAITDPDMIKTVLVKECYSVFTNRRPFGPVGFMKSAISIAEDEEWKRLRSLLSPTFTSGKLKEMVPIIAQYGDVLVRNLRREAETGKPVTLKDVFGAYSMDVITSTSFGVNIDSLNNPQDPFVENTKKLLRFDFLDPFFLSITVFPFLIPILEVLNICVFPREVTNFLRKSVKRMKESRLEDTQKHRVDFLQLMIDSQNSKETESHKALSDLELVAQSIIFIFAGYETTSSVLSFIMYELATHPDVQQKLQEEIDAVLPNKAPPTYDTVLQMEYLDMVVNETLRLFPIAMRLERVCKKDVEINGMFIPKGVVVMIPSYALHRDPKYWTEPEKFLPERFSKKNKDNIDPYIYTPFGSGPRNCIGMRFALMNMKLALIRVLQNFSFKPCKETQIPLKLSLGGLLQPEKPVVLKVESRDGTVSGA

mice [10] = test: grip strength test; format: in vivo; conditions: i.p. 30 min before, AS-1 81.12 mg/kg, VPA […], combination AS-1 27.6 + VPA 59.9 mg/kg
Description: The time before the commencement of the grip strength test (after drug administration) was identical to that of the PTZ test. This experimental procedure has been described in detail in our earlier studies.

[11] = test system: N-type Ca^2+ (antagonist radioligand); parameters: method as in Rapacz et al. [12]; conditions: 100 μM; rat cerebral cortex; ref Rapacz et al. [12]; cited from earlier work
[12] = test system: L-type Ca^2+ (verapamil site, antagonist radioligand); parameters: method as in Rapacz et al. [12]; conditions: rat cerebral cortex, ref Rapacz et al. [12], cited from earlier work
[13] = parallel artificial membrane permeability assay (PAMPA); format: in vitro ADME; conditions: ± SD, read-out: Pe, permeability coefficient
CYP2C9 = CYP2C9 (Homo sapiens, UniProt P11712); conditions: 10 μM
CYP2C9, sequence (P11712 whole entry): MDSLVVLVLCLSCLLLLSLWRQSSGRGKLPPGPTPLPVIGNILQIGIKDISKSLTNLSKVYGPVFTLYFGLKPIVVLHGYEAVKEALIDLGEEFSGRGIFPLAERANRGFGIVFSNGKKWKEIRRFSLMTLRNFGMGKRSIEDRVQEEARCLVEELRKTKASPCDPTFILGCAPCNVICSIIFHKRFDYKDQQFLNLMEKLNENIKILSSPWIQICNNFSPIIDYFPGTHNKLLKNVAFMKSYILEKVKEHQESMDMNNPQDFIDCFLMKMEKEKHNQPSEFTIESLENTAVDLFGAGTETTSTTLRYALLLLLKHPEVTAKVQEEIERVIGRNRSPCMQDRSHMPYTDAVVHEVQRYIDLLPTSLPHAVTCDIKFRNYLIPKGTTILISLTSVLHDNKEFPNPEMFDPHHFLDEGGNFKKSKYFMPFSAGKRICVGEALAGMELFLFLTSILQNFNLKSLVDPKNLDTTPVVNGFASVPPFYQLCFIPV

[14] = test system: PTZ-induced kindling in mice; test: PTZ-induced kindling; format: in vivo; conditions: 33 daily i.p. injections; AS-1 15, 30 and 60 mg/kg, VPA 150 mg/kg; PTZ 40 mg/kg i.p. every 48 h, 17 injections; vs PTZ-kindled control
Protocol: All suspensions and solutions were prepared freshly and administered in a constant volume of 0.1 ml per 10 g of body weight. In all experiments, AS-1 and VPA were injected i.p. Control animals received vehicles only. […] After each PTZ injection, mice were placed separately into transparent cages for 30 min for behavioral observation to assign an appropriate seizure score. […] After each PTZ injection, the mean seizure severity score for each experimental group was calculated. Non-kindled (control) mice were treated as kindled animals, except that they were injected with normal saline instead of PTZ. Experimental grouping for PTZ kindling was as follows: […]

[15] = test system: NMDA (antagonist radioligand); parameters: method as in Rapacz et al. [12]; conditions: rat cerebral cortex, ref Rapacz et al. [12], cited from earlier work
CYP2D6 = CYP2D6 (Homo sapiens, UniProt P10635)
CYP2D6, sequence (P10635 whole entry): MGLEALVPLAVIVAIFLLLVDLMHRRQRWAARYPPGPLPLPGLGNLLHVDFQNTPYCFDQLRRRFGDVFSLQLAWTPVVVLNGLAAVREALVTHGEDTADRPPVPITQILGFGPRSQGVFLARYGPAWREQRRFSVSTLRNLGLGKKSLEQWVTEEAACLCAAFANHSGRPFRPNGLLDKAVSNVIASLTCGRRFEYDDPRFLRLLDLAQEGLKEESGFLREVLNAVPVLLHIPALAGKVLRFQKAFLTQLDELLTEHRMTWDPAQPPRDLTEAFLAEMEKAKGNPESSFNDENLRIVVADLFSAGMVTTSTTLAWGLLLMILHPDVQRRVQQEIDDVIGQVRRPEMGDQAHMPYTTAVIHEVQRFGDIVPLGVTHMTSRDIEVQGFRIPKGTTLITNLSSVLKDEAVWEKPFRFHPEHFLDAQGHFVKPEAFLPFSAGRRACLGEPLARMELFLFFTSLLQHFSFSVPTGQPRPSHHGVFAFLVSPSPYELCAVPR

TRPV1 (VR1) (h) = molecular target: T2, TRPV1 (VR1) (h) (Homo sapiens, UniProt Q8NER1); test: TRPV1 functional assay (antagonist effect); format: cell-based; conditions: human recombinant (CHO cells), read-out: % inhibition of control agonist/antagonist response (antagonist effect)
T2 construct: Cerep Laboratories (contract testing)
T2 sequence (Q8NER1 whole entry): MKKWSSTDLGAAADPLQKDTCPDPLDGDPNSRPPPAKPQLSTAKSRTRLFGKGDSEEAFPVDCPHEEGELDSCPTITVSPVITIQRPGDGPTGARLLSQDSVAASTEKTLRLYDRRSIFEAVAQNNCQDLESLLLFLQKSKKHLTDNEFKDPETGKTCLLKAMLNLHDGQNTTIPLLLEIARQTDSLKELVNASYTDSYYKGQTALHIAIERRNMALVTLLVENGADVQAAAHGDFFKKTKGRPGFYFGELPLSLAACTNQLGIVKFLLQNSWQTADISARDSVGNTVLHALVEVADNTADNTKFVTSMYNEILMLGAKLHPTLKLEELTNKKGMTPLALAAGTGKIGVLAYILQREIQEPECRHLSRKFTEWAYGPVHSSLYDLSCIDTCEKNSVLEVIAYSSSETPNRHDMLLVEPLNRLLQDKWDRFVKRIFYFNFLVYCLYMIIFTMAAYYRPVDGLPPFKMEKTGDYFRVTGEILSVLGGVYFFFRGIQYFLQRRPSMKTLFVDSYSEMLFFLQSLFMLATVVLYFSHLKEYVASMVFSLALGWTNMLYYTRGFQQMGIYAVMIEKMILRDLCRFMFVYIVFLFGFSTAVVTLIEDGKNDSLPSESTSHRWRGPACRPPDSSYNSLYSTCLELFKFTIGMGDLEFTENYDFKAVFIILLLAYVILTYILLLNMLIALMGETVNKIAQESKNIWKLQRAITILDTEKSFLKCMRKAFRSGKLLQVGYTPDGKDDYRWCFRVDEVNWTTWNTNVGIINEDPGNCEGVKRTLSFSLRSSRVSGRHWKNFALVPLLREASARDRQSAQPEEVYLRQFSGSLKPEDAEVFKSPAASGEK

Na^+ channel (site 2) = test system: Na^+ channel (site 2); parameters: method as in Rapacz et al. [12]; conditions: rat cerebral cortex, ref Rapacz et al. [12], cited from earlier work
mice [16] = test: passive avoidance task; format: in vivo; conditions: i.p. 30 min before, AS-1 81.12 mg/kg, VPA […], combination AS-1 27.6 + VPA 59.9 mg/kg
[17] = test system: 6-Hz-induced seizures (44 mA); test: 6-Hz (44 mA) seizure model; format: in vivo; conditions: Mus musculus, ip; mice, i.p., 30 min before the test; 95% confidence intervals in parentheses
mice [18] = test: chimney test; format: in vivo; conditions: i.p. 30 min before, AS-1 81.12 mg/kg, VPA […], combination AS-1 27.6 + VPA 59.9 mg/kg
Description: [31]’s chimney test. The pretreatment time for AS-1 and VPA in the chimney test was identical to that of the PTZ test. This experimental procedure has been described in detail in our earlier studies.

[19] = test system: 6-Hz (32 mA) psychomotor seizures; conditions: mice, i.p.; ref [10], [12]; cited from earlier work
[20] = repeated i.p. pretreatment 15–60 mg/kg
[21] = 15 mg/kg i.p., 30 min before the test
[22] = 30 mg/kg and 60 mg/kg i.p. (p < 0.01 and p < 0.001)

CC(C(=O)NCc1ccccc1)N1C(=O)CCC1=O (stereo not shown) [AS-1, N-benzyl-2-(2,5-dioxopyrrolidin-1-yl)propanamide]
effect on HepG2 cells (hepatoma HepG2 cells [1]): weak, statistically significant toxic effect
ED50 [2]: 81.1 ± 10.4 mg/kg
effect on spontaneous locomotor activity (PTZ-kindled mice [3]): did not affect locomotor activity
HepG2 viability (hepatoma HepG2 cells [4]; 100 μM, 72 h incubation, ± SD): 82.3 ± 6.5^a Percentage of control
effect on HepG2 cells' viability (hepatoma HepG2 cells [4]; only at the highest concentration used of 100 μM, 72 h, p < 0.05): slight but statistically significant effect
% inhibition of control-specific binding [5]: 10.2 (100) %
maximal amplitude of sodium currents normalized to control (1.0 in control) [6]: 0.93 ± 0.06
effect on number of epileptiform discharges during 20 min (zebrafish larvae): significantly reduced
inhibition at 100 µM (hERG potassium channel): 0.8%
effect on seizure threshold for the first myoclonic twitch (kindled mice; repeated i.p. injection of 60 mg/kg, 48 h after last PTZ, vs non-kindled control): significantly increased the seizure threshold
effect on threshold for forelimb tonus (kindled mice; [20]): No changes
effect on threshold for generalized clonus (kindled mice; [20]): No changes
% inhibition of control-specific binding [7]: 2.4 (100) %
Phase I metabolism in human (metabolites by UPLC) [8]: no presence of metabolites; also recorded: No metabolites found
effect on percentage of open arm entries and percentage of time spent in open arms (PTZ-kindled mice [9]): did not produce any significant changes
inhibition at 100 µM (CB1 (h)): 5.6%
effect on threshold for generalized clonus (naïve mice; [21]): did not affect significantly
effect on threshold for the first myoclonic twitch (naïve mice; [21]): did not affect significantly
effect on threshold for generalized clonic seizure (naïve mice; [22]): raised the thresholds
effect on threshold for the first myoclonic twitch (naïve mice; [22]): raised the thresholds
effect on susceptibility to PTZ-induced forelimb extension (forelimb tonus threshold) (naïve mice; 15–60 mg/kg i.p.): did not affect
effect on CYP3A4 activity (CYP3A4): No significant effect
Muscular strength, mean grip strength ± SEM (mice [10]): 99.9 ± 2.2 g
% inhibition of control-specific binding [11]: 0.2 (100) %
% inhibition of control-specific binding ([12]; 100 μM): 15.0%
% inhibition of control-specific binding ([12]; 500 μM): 45.0%
Papp [13]: 9.8 ± 2 ×10⁻⁶ cm/s
CYP2C9 activity (CYP2C9): 67.0 ± 3.6^a Percentage of control
effect on kindling development (mean seizure severity score) [14]: significantly suppressed kindling development
% inhibition of control-specific binding ([15]; 100 μM): 15.0%
% inhibition of control-specific binding ([15]; 200 μM): 35.0%
effect on CYP2D6 activity (CYP2D6): No significant effect
CYP2D6 activity (CYP2D6; human, 10 μM): 104.4 ± 0.5^a Percentage of control
inhibition at 100 µM (TRPV1 (VR1) (h)): 4.3%
% inhibition of control-specific binding (Na^+ channel (site 2); 100 μM): 15.9%
% inhibition of control-specific binding (Na^+ channel (site 2); 500 μM): 56.0%
Retention time, median (25th; 75th percentiles) (mice [16]): 180 (146; 180) s
ED50 [17]: 75.4 mg/kg
Motor coordination, percentage of animals showing motor coordination impairment (mice [18]): 0%
ED50 (6 Hz, 32 mA) [19]: 24.66 mg/kg
